Results: patent US20070134814A1, “Methods and compositions for the detection of calcifying nano-particles, identification and quantification of associated proteins thereon, and correlation to disease” (priority 2005, published 2007)

System: freshly collected human blood
Assay: Whole blood clotting slide test
Conditions: 10 μl solution added to plain glass slide before blood
Source text: The method allows for measuring changes in the clotting time induced by contact with foreign surfaces, i.e. plain glass or coated glass, and for studying the effects of drugs on the clotting induced by foreign surface.
Venous blood was collected with venipuncture from 19 random volunteers participating in CNP epidemiological study (Ethical Committee Approval, Kuopio University). Volunteers signed an informed consent. Blood was collected with venipuncture in siliconized glass serum tubes, EDTA plasma tubes or citrate plasma tubes (Terumo), and was tested immediately after collection for whole blood clotting time on different test platforms.
200 μl of freshly drawn blood was added to pre-coated or plain glass slides which were put on a tilting shaker 15 tilts/minute at room temperature until formation of a solid clot was observed as “frozen droplet”. Experiments were carried out usually in triplicate to determine reproducibility of tests. CV % for the triplicate tests were less than 6.81% (CNP-coated slide, n=13), 8.79% (apatite-coated slide, n=15) and 10.37% (non-treated control slide, n=15). Clotting time results were analyzed by Bonferroni (Dunn) t Test (Table 1).
Therefore, to study the effects of apatite on clotting, a whole blood clotting slide test was developed. […]

Row | SMILES | effect on clotting time
1 | O=C([O-])CN(CCN(CC(=O)[O-])CC(=O)[O-])CC(=O)[O-].[Ca+2].[Na+].[Na+] [Calcium EDTA] | did not affect the clotting time
2 | CC(O)(P(=O)(O)O)P(=O)(O)O [etidronate] | did not affect the clotting time
